From patent publication US20090305894A1, “use of sulfonanilides as herbicide” (priority 2005, published 2009)

Columns and labels:
Format in all cases: in vivo
[1] = tested on: Lindernia procumbens Philcox (resistant to sulfonylurea type herbicide); assay: Herbicidal efficacy test to weeds resistant to sulfonylurea type herbicide (Test Example 1, applied on water surface, Table 8); settings: 60 g ai/ha, applied on water surface at beginning of sprouting, rated after 3 weeks; 100% = complete withering, 0% = no effect
Experimental: (§1) Preparation of formulation of active compound
(§2) Carrier: DMF 5 parts by weight
(§3) Emulsifier: benzyloxypolyglycol ether 1 part by weight
(§4) The formulations of active compounds were obtained as emulsions by mixing 1 part by weight of the active compound with the carrier and emulsifier in the described amounts. The formulations were diluted with water so as to adjust a prescribed dosage.
(§5) In a greenhouse respective seeds of Scirpus juncoides Roxburgh (from Hokkaido, Japan) and Lindernia procumbens Philcox (from Saitama, Japan), which are confirmed to have resistance to a sulfonylurea type herbicide, were inoculated in pots filled with 500 cm^2 of paddy field soil and water was poured to the pot in about 2 to 3 cm depth. At the beginning of sprouting of the weeds, prescribed diluted solutions of the formulations of the respective active compounds obtained by the above-mentioned manner were applied on the water surface. After the treatment water depth of 3 cm was kept. The herbicidal effect was investigated after 3 weeks of the treatment. The herbicidal effect was rated as 100% in the case of complete withering and 0% in the case of no herbicidal effect. When the herbicidal effect was 80% or higher, the practical effectiveness as herbicides is recognized. As the representative examples, the test results of the compound Nos. 1, 3, 4, 5, 6, 7, 13, 70, 127, 128 and 130 are shown in Table 8.

[2] = tested on: Scirpus juncoides Roxburgh (resistant to sulfonylurea type herbicide); assay: as above; settings: 60 g ai/ha, applied on water surface at beginning of sprouting, rated after 3 weeks; 100% = complete withering, 0% = no effect
Experimental: as §1, §2, §3, §4, §5

[3] = tested on: paddy rice seedlings (cultivar: Nihonbare); assay: Herbicide damage on transplanted paddy rice (Test Example 2, Table 9); settings: 60 g ai/ha, applied to water surface 5 days after transplantation, rated after 3 weeks; 100% = complete withering, 0% = no damage
Experimental: as §4
In a greenhouse each three paddy rice seedlings (cultivar: Nihonbare) were transplanted (transplantation depth 2 cm) in each pot filled with 500 cm^2 of paddy field soil and covered with water in about 2 to 3 cm depth. After 5 days from the transplantation, prescribed diluted solutions of the formulations of the respective active compounds obtained in the same manner as in Test Example 1 were applied to the water surface of each pot. After the treatment, the water depth of 3 cm was kept. The herbicide damage was investigated after 3 weeks of the treatment. The herbicide damage was rated as 100% in the case of complete withering and 0% in the case of no herbicide damage. When the herbicide damage was 20% or lower, the safety as a paddy rice herbicide was evaluated to be excellent. As the representative examples, the test results of the compound Nos. 3, 4, 5, 6, 7, 70, 115, 127 and 128, and comparative compound C-2 are shown in Table 9.

rice (cultivar: Balilla) [4] = assay: Irrigated directly seeded paddy rice, herbicide damage, spraying to soil before sprouting (Test Example 3, Table 10); settings: 20 g ai/ha, rated after 3 weeks
Experimental: as §4
(§6) In a greenhouse seeds of rice (cultivar: Balilla) and weeds (Brachiaria plantaginea, Cyperus esculntus, Cyperus iria L., Echinochloa colonum, Leptochloa chinensis, Ipomoea purpurea, and Sesbania exaltata) were inoculated on the surface layers of pots filled with 100 cm^2 of paddy field soil and covered with soil. Water was poured to produce wet state (water level 0 cm). The prescribed diluted solutions of the formulations of the respective active compounds obtained in the same manner as in Test Example 1 were sprayed on the soil of some pots on completion of the seeding and the solutions of the agents were sprayed over the plants from the above in the rest of the pots after the respective sample plants were grown in first- to third-1 eaf stage in the greenhouse. After one day from the treatment with the compound, water was poured in 3 cm depth. The herbicidal effects and herbicide damage on rice of the respective compounds were investigated after 3 weeks from the treatment. The herbicidal effect and herbicide damage on the rice were rated as 100% in the case of complete withering and 0% in the case of no herbicidal effect or no harm. When herbicidal effect was 80% or higher, it was determined to be practically applicable as herbicides. When the herbicide damage was 20% or lower, the safety of the herbicide was evaluated to be excellent.

Brachiaria plantaginea [5] = assay: Irrigated directly seeded paddy rice, herbicidal effect, spraying to soil before sprouting (Test Example 3, Table 10); settings: 20 g ai/ha, rated after 3 weeks
Experimental: as §4, §6

Cyperus esculntus [6] = assay: as above; settings: 20 g ai/ha, rated after 3 weeks
Experimental: as §4, §6

Cyperus iria L. [7] = assay: as above; settings: 20 g ai/ha, rated after 3 weeks
Experimental: as §4, §6

Echinochloa colonum [8] = assay: as above; settings: 20 g ai/ha, rated after 3 weeks
Experimental: as §4, §6

Ipomoea purpurea [9] = assay: as above; settings: 20 g ai/ha, rated after 3 weeks
Experimental: as §4, §6

Leptochloa chinensis [10] = assay: as above; settings: 20 g ai/ha, rated after 3 weeks
Experimental: as §4, §6

Sesbania exaltata [11] = assay: as above; settings: 20 g ai/ha, rated after 3 weeks
Experimental: as §4, §6

rice (cultivar: Balilla) [12] = assay: Irrigated directly seeded paddy rice, herbicide damage, spraying to stems and leaves after sprouting (Test Example 3, Table 11); settings: 20 g ai/ha, rated after 3 weeks
Experimental: as §4, §6

Brachiaria plantaginea [13] = assay: Irrigated directly seeded paddy rice, herbicidal effect, spraying to stems and leaves after sprouting (Test Example 3, Table 11); settings: 20 g ai/ha, rated after 3 weeks
Experimental: as §4, §6

Cyperus esculntus [14] = assay: as above; settings: 20 g ai/ha, rated after 3 weeks
Experimental: as §4, §6

Cyperus iria L. [15] = assay: as above; settings: 20 g ai/ha, rated after 3 weeks
Experimental: as §4, §6

Echinochloa colonum [16] = assay: as above; settings: 20 g ai/ha, rated after 3 weeks
Experimental: as §4, §6

Ipomoea purpurea [17] = assay: as above; settings: 20 g ai/ha, rated after 3 weeks
Experimental: as §4, §6

Leptochloa chinensis [18] = assay: as above; settings: 20 g ai/ha, rated after 3 weeks
Experimental: as §4, §6

Sesbania exaltata [19] = assay: as above; settings: 20 g ai/ha, rated after 3 weeks
Experimental: as §4, §6

Glycine max = assay: Herbicide damage to crops in dry field, spraying treatment on soil before sprouting (Test Example 4, Table 12); settings: 80 g ai/ha, rated after 3 weeks
Experimental: as §4, §6
(§7) In a greenhouse one seed each of crops in dry field (Triticum aestivum and Glycine max) and weeds (Echinochloa crus-gali and Setaria vividis) were inoculated in the surface layer in one pot filled with 16 cm^2 of dry field soil and covered with soil. The prescribed diluted solutions of the formulations of the respective active compounds obtained in the same manner as in Test Example 1 were sprayed to the soil upon the inoculation. The herbicidal effect and herbicide damage on crops of the respective compounds were investigated after 3 weeks from the treatment. Evaluations of the herbicidal effect and herbicide damage were carried out in the same manner as in Test Example 3. As the representative example, the test results of compound No. 1 and 24, and the comparative compound C-1 are shown in Table 12.

Triticum aestivum = assay: as above; settings: 80 g ai/ha, rated after 3 weeks
Experimental: as §4, §6, §7

Echinochloa crus-gali = assay: Herbicidal effect on weeds in dry field, spraying treatment on soil before sprouting (Test Example 4, Table 12); settings: 80 g ai/ha, spraying to soil before sprouting, rated after 3 weeks
Experimental: as §4, §6, §7

Setaria vividis = assay: as above; settings: 80 g ai/ha, spraying to soil before sprouting, rated after 3 weeks
Experimental: as §4, §6, §7

## COc1cc(OC)nc(C(O)c2c(F)ccc(F)c2NS(=O)(=O)C(F)F)n1 (centres unmarked) [compound 7]
[1]
  Herbicidal effect to sulfonylurea resistant weeds: Lindernia procumbens Philcox (from Saitama pref.): 100%
[2]
  Herbicidal effect to sulfonylurea resistant weeds: Scirpus juncoides Roxburgh (from Hokkaido): 100%
[3]
  Herbicide damage on transplanted paddy rice: 10%

## COc1nc(OC)nc(C(O)c2cccc(F)c2N(C)S(=O)(=O)C(F)F)n1 (centres unmarked) [compound 9]
Rice (cultivar: Balilla) [4]
  Herbicide damage on Rice: 20%
Brachiaria plantaginea [5]
  Herbicidal effect Brachiaria plantaginea: 70%
Cyperus esculntus [6]
  Herbicidal effect Cyperus esculntus: 100%
Cyperus iria L. [7]
  Herbicidal effect Cyperusiria L.: 100%
Echinochloa colonum [8]
  Herbicidal effect Echinochloa colonum: 100%
Ipomoea purpurea [9]
  Herbicidal effect Ipomoea purpurea: 70%
Leptochloa chinensis [10]
  Herbicidal effect Leptochloa chinensis: 80%
Sesbania exaltata [11]
  Herbicidal effect Sesbania exaltata: 100%
Rice (cultivar: Balilla) [12]
  Herbicide damage on Rice: 20%
Brachiaria plantaginea [13]
  Herbicidal effect Brachiaria plantaginea: 100%
Cyperus esculntus [14]
  Herbicidal effect Cyperus esculntus: 100%
Cyperus iria L. [15]
  Herbicidal effect Cyperusiria L.: 100%
Echinochloa colonum [16]
  Herbicidal effect Echinochloa colonum: 100%
Ipomoea purpurea [17]
  Herbicidal effect Ipomoea purpurea: 100%
Leptochloa chinensis [18]
  Herbicidal effect Leptochloa chinensis: 60%
Sesbania exaltata [19]
  Herbicidal effect Sesbania exaltata: 100%

## COCN(c1c(F)cccc1C(=O)c1nc(OC)nc(OC)n1)S(=O)(=O)C(F)F [compound 24]
Glycine max
  Herbicide damage Glycine max: 0%
Triticum aestivum
  Herbicide damage Triticum aestivum: 0%
Echinochloa crus-gali
  Herbicidal effect Echinochloa crus-gali: 80%
Setaria vividis
  Herbicidal effect Setaria vividis: 90%

## COc1cc(OC)nc(C(O)c2ccc(F)c(C)c2NS(=O)(=O)C(F)F)n1 (centres unmarked) [compound 70]
[1]
  Herbicidal effect to sulfonylurea resistant weeds: Lindernia procumbens Philcox (from Saitama pref.): 90%
[2]
  Herbicidal effect to sulfonylurea resistant weeds: Scirpus juncoides Roxburgh (from Hokkaido): 100%
[3]
  Herbicide damage on transplanted paddy rice: 10%

## COc1nc(OC)nc(C(=O)c2cccc(OC)c2N(C)S(=O)(=O)C(F)F)n1 [compound 115]
[3]
  Herbicide damage on transplanted paddy rice: 0%

## COc1cc(OC)nc(C(O)c2ccc(F)c(OC)c2NS(=O)(=O)C(F)F)n1 (centres unmarked) [compound 127]
[1]
  Herbicidal effect to sulfonylurea resistant weeds: Lindernia procumbens Philcox (from Saitama pref.): 90%
[2]
  Herbicidal effect to sulfonylurea resistant weeds: Scirpus juncoides Roxburgh (from Hokkaido): 100%
[3]
  Herbicide damage on transplanted paddy rice: 0%

## COc1cc(OC)nc(C(O)c2ccc(Cl)c(OC)c2NS(=O)(=O)C(F)F)n1 (centres unmarked) [compound 128]
[1]
  Herbicidal effect to sulfonylurea resistant weeds: Lindernia procumbens Philcox (from Saitama pref.): 100%
[2]
  Herbicidal effect to sulfonylurea resistant weeds: Scirpus juncoides Roxburgh (from Hokkaido): 90%
[3]
  Herbicide damage on transplanted paddy rice: 0%

## CCOc1cccc(C(O)c2nc(OC)cc(OC)n2)c1NS(=O)(=O)C(F)F (centres unmarked) [compound 130]
[1]
  Herbicidal effect to sulfonylurea resistant weeds: Lindernia procumbens Philcox (from Saitama pref.): 100%
[2]
  Herbicidal effect to sulfonylurea resistant weeds: Scirpus juncoides Roxburgh (from Hokkaido): 100%
